According to patent publication US6974870B2, “Substituted 3-amino-thieno [2,3-b]pyridine-2-carboxylic acid amide compounds and processes for preparing and their uses” (Boehringer Ingelheim Phamaceuticals, Inc., priority 2002, dated 2005):

Each compound was assayed against T1, human IKKα (Homo sapiens, UniProt O15111) (assay: IKKα kinase inhibition assay (phosphorylation of IκBα substrate, 33P-ATP)). Conditions: flag-tagged human IKKα 3.6 μg/ml, GST-IκBα (1-54) 245 μg/ml, 250 nM ATP, 1 hour at 25° C.
T1 construct: FLAG (N)
T1 sequence (O15111 1-745): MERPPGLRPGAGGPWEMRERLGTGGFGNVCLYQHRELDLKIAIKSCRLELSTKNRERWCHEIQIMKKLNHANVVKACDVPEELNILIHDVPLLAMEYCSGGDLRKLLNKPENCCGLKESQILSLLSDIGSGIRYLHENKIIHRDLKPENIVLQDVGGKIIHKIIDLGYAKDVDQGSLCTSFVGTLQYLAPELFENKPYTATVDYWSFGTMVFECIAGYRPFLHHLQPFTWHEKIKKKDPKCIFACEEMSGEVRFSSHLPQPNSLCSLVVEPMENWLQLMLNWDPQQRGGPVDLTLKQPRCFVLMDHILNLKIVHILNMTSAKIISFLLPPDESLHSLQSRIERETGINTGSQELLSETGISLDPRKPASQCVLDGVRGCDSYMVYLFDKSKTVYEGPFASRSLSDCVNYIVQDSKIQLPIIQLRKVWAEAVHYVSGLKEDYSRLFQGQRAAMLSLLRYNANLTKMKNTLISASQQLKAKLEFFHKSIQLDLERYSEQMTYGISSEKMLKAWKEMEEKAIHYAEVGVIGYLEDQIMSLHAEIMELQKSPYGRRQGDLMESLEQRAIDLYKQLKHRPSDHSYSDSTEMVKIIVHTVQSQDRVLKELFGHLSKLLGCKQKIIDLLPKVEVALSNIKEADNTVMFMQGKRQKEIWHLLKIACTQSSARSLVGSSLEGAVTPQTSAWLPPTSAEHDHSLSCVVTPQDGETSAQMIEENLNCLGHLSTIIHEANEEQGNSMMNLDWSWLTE
Format: biochemical
Procedure: The inhibition of IKKα and IKKβ by the compounds of the present invention was determined with the following assay that measures the phosphorylation of the IκBα substrate by the respective kinases. The enzymes used in the assay were N-terminally flag-tagged versions of the human IKKβ or IKKα and the substrate was a GST fusion protein with IκBα (amino acids 1-54).
The reaction mixtures (60 μl) contained 20 mM HEPES pH 7.5, 10 mM MgCl2, 2 mM MnCl2, 100 mM NaCl, 100 μM Na3VO4, 20 mM β-glycerophosphate, 1 mM DTT, 2% DMSO, 250 nM ATP, 0.4 nM [^33P]ATP (specific activity, 3000 Ci/mmol), IκBα substrate, IKK enzyme and test compound. The reaction mixtures contained either 3.6 μg/ml IKKα and 245 μg/ml IκBα or 0.9 μg/ml IKKβ and 53 μg/ml IκBα.
Reactions were initiated by adding a solution of IκBα substrate and ATP to polypropylene plates containing IKK enzyme that was pre-incubated for 5 minutes with test compound. Then the reaction mixtures were incubated for 1 hour at 25° C., placed on ice and quenched by the addition of 150 μl 10% trichloroacetic acid and 5% disodium pyrophosphate. After mixing, the entire contents of the quenched reaction mixtures were transferred to a pre-wetted Packard UniFilter filtration plate, aspirated and washed 6 times with 250 μl of ddH2O using the Packard Filtermate Harvester. Filtration plates were then air dried, supplemented with 40 μl of Microscint 20 scintillation fluid and the ^33P-labeled reaction products were quantified using the Packard TopCount scintillation counter.
Compounds were tested in three-fold serial dilutions and inhibitor concentrations to achieve 50% inhibition of enzyme activity (i.e., IC50) were derived from dose-reponse curves using SAS software (SAS Institute, Cary N.C.). A non-linear regression analysis based on the Hill equation was applied to the percent inhibition versus concentration data. In all cases, compound concentrations were verified by HPLC.

IC50, ≤ 10 µM:
Cc1cc(-c2ccc(S(C)(=O)=O)cc2)c2c(N)c(C(N)=O)sc2n1 [3-Amino-4-(4-methanesulfonyl-phenyl)-6-methyl-thieno[2,3-b]pyridine-2-carboxylic acid amide]
Cc1cc(/C=C/c2ccc(Cl)cc2)c2c(N)c(C(N)=O)sc2n1 [3-Amino-4-[(E)-2-(4-chloro-phenyl)-vinyl]-6-methyl-thieno[2,3-b]pyridine-2-carboxylic acid amide]
Cc1cc(/C=C/c2ccc(F)cc2)c2c(N)c(C(N)=O)sc2n1 [3-Amino-4-[(E)-2-(4-fluoro-phenyl)-vinyl]-6-methyl-thieno[2,3-b]pyridine-2-carboxylic acid amide]
Cc1cc(-c2ccco2)c2c(N)c(C(N)=O)sc2n1 [3-Amino-4-furan-2-yl-6-methyl-thieno[2,3-b]pyridine-2-carboxylic acid amide]
CC(C)Oc1ccnc2sc(C(N)=O)c(N)c12 [3-Amino-4-isopropoxy-thieno[2,3-b]pyridine-2-carboxylic acid amide]
CCCc1cc(N2CCC(N)(C#N)CC2)nc2sc(C(N)=O)c(N)c12 [3-Amino-6-(4-amino-4-cyano-piperidin-1-yl)-4-propyl-thieno[2,3-b] pyridine-2-carboxylic acid amide]
NC(=O)c1sc2nc(N3CCC(N)CC3)cc(-c3ccc([N+](=O)[O-])cc3)c2c1N [3-Amino-6-(4-amino-piperidin-1-yl)-4-(4-nitro-phenyl)-thieno[2,3-b]pyridine-2-carboxylic acid amide]
NC(=O)c1sc2nc(N3CCC(N)CC3)cc(/C=C/c3ccccc3)c2c1N [3-Amino-6-(4-amino-piperidin-1-yl)-4-((E)-styryl)-thieno[2,3-b]pyridine-2-carboxylic acid amide]
CSc1cc(N2CCC(N)CC2)nc2sc(C(N)=O)c(N)c12 [3-Amino-6-(4-amino-piperidin-1-yl)-4-methylsulfanyl-thieno[2,3-b]pyridine-2-carboxylic acid amide]
CCCc1cc(N2CCC(N)CC2)nc2sc(C(N)=O)c(N)c12 [3-Amino-6-(4-amino-piperidin-1-yl)-4-propyl-thieno[2,3-b] pyridine-2-carboxylic acid amide]
CCCc1cc(N2CCN(C)CC2)nc2sc(C(N)=O)c(N)c12 [3-Amino-6-(4-methyl-piperazin-1-yl)-4-propyl-thieno[2,3-b] pyridine-2-carboxylic acid amide]
CCCc1cc(N2CCC(NC)CC2)nc2sc(C(N)=O)c(N)c12 [3-Amino-6-(4-methylamino-piperidin-1-yl)-4-propyl-thieno[2,3-b] pyridine-2-carboxylic acid amide]
CCCc1cc(N2CCC(NCC(O)c3ccc(C(=O)NCc4cccc(C(N)=O)c4)cc3)CC2)nc2sc(C(N)=O)c(N)c12 (stereo not drawn) [3-Amino-6-(4-{2-[4-(3-carbamoyl-benzylcarbamoyl)-phenyl]-2-hydroxy-ethylamino}-piperidin-1-yl)-4-propyl-thieno[2,3-b] pyridine-2-carboxylic acid amide]
CCCc1cc(N2CC[C@@H](N)C2)nc2sc(C(N)=O)c(N)c12 [3-Amino-6-((R)-3-amino-pyrrolidin-1-yl)-4-propyl-thieno[2,3-b] pyridine-2-carboxylic acid amide]
CCCc1cc(N2CCC(NCC(O)c3ccc(C(=O)NCc4cccnc4)cc3)CC2)nc2sc(C(N)=O)c(N)c12 (stereo not drawn) [3-Amino-6-[4-(2-hydroxy-2-{4-[(pyridin-3-ylmethyl)-carbamoyl]-phenyl}-ethylamino)-piperidin-1-yl]-4-propyl-thieno[2,3-b] pyridine-2-carboxylic acid amide]
